The assay has as its system 299254-011-R-J1-PDC complex spheroid viability. Nature of the assay: Anticancer human tumor 299254-011-R-J1-PDC patient-derived melanoma cell line growth inhibition [POLQ]. The settings on record: for viability, T/C: stronger effect = lower value. On the procedure: Multicellular complex tumor spheroid response to Polymerase (POL) inhibitors (novobiocin, ART-558, RP6685) in combination with a variety of drugs and investigational agents in selected tumor cell lines
The POL inhibitors (novobiocin, ART-558, and RP6685) were evaluated both individually and in combination with standard of care and investigational anticancer small molecules within a complex spheroid model of solid tumors. . Complex spheroids include a stromal component modeled by human endothelial cells (HUVEC) and fibroblasts modeled by human mesenchymal stem cells (MSCs). The concentration ranges selected for each drug and investigational agent were based upon clinically achievable concentrations if the clinical Cmax of the agent was known.
Compounds. The drugs and investigational agents: novobiocin (NSC847541), ART-558 (NSC835418), RP-6685 (NSC848927), peposertib (NSC802822), ceralasertib (NSC780249), elimusertib (NSC800525), camonsertib (NSC841442), AZD-1390 (NSC803789), olaparib (NSC753686), talazoparib (NSC767125), rucaparib (NSC756644), sotorasib (NSC818433), MRTX-1133 (NSC836407), SN-38 (NSC673596), topotecan (NSC609699), epotoside (NSC141540), doxorubicin (NSC123127), gemcitabine (NSC613327), 5-fluorouracil (NSC19893), paclitaxel (NSC125973), vemurafenib (NSC761431), MSA-2 (NSC828583), SN-011 (NSC837082), adavosertib (NSC754352), prexasertib (NSC758257), carboplatin (NSC241240) and oxaliplatin (NSC266046), were obtained from the National Cancer Institute (NCI) Developmental Therapeutics Program Chemical Repository (21). The FDA-approved anticancer drug set is available from the Developmental Therapeutics Program at https://dtp.cancer.gov/organization/dscb/obtaining/. […] The stock solutions were prepared in dimethyl sulfoxide (DMSO, Sigma-Aldrich, St. Louis, MO, cat. D2650), except for the platinum compounds which were prepared in saline (Quality Biological, Gaithersburg, MD, cat. 114-055-101), at 800-fold the tested concentration and stored at -70 degrees C prior to their use. All drugs and investigational agents were tested over a range starting from a high concentration at or near the clinical Cmax and decreasing in half-log increments. If the clinical Cmax for an agent had not been determined, the highest concentration tested was 10 microM, except for SN-38, which was tested at a high concentration of 1 microM.
Cell Culture. All cells were maintained in an incubator at 37 degrees C and 5% CO2 with 95% humidity. The PDC lines were cultured according to standard operating procedures established by the NCI PDMR (https://pdmr.cancer.gov). Table 3 of the manuscript, lists the cell lines along with the number of the three cell types plated to form the mct-spheroids and media for tumor cell growth. After thawing, all PDC lines, except 997537-175-T-J1-PDC and 415267-285-R-J2-PDC, were cultured in Matrigel-coated flasks prepared with a working solution of 1X Ham's F-12 nutrient mix, without supplementation (Thermo Fisher Scientific, cat. 11765054), 100 U/mL penicillin-streptomycin (Thermo Fisher Scientific, cat. 15140122), and 2.5% Matrigel (Corning Inc., Corning, NY, cat. 354248) for the first three passages. The two PDC lines 997537-175-T-J1-PDC and 415267-285-R-J2-PDC were cultured on uncoated flasks. The 857933-349-R-J2-PDC line was cultured in 6C/Colon 1B media containing advanced DMEM/F-12 (Thermo Fisher Scientific, cat. 12634028), 10 mM HEPES (Thermo Fisher Scientific, cat. 15630080), 1X GlutaMAX supplement (Thermo Fisher Scientific, cat. 35050061), 0.1 mg/mL primocin (InvivoGen, San Diego, CA, cat. ant-pm-2), 10% defined fetal bovine serum, heat inactivated (HyClone Laboratories Inc., Logan, UT, cat. SH30070.03HI), 50% L-WRN conditioned media (ATCC, cat. CRL-3276), 1.25 mM N-Acetyl-L-cysteine (Sigma-Aldrich, cat. A9165), 10 mM nicotinamide (Sigma-Aldrich, cat. N0636), 1X B-27 supplement (Thermo Fisher Scientific, cat. 17504044), 1X N-2 supplement (Thermo Fisher Scientific, cat. […]

The mark [1] stands for this setting: curve of first compound, second compound 0.0316 µM.
Where [2] appears, read: curve of first compound, second compound 0.1 µM.
[3] abbreviates: curve of first compound, second compound 0.316 µM.
[4] abbreviates: curve of first compound, second compound 1 µM.
The mark [5] stands for this setting: curve of first compound, second compound 3.16 µM.
Where [6] appears, read: curve of first compound, second compound 10 µM.
The mark [7] stands for this setting: second compound 0.0316 µM, first compound 0.0316 µM.
Where [8] appears, read: second compound 0.0316 µM, first compound 0.1 µM.
The mark [9] stands for this setting: second compound 0.0316 µM, first compound 0.316 µM.
Where [10] appears, read: second compound 0.0316 µM, first compound 1 µM.
Where [11] appears, read: second compound 0.1 µM, first compound 0.0316 µM.
[12] abbreviates: second compound 0.1 µM, first compound 0.1 µM.
[13] abbreviates: second compound 0.1 µM, first compound 0.316 µM.
Setting [14] is: second compound 0.1 µM, first compound 1 µM.
[15] abbreviates: second compound 0.316 µM, first compound 0.0316 µM.
Setting [16] is: second compound 0.316 µM, first compound 0.1 µM.
Where [17] appears, read: second compound 0.316 µM, first compound 0.316 µM.
The mark [18] stands for this setting: second compound 0.316 µM, first compound 1 µM.
Setting [19] is: second compound 1 µM, first compound 0.0316 µM.
[20] abbreviates: second compound 1 µM, first compound 0.1 µM.
[21] abbreviates: second compound 1 µM, first compound 0.316 µM.
Where [22] appears, read: second compound 1 µM, first compound 1 µM.
The mark [23] stands for this setting: second compound 3.16 µM, first compound 0.0316 µM.
Where [24] appears, read: second compound 3.16 µM, first compound 0.1 µM.
Where [25] appears, read: second compound 3.16 µM, first compound 0.316 µM.
The mark [26] stands for this setting: second compound 3.16 µM, first compound 1 µM.
Setting [27] is: second compound 10 µM, first compound 0.0316 µM.
Setting [28] is: second compound 10 µM, first compound 0.1 µM.
[29] abbreviates: second compound 10 µM, first compound 0.316 µM.
[30] abbreviates: second compound 10 µM, first compound 1 µM.

Values joined by “and” are separate entries in the source; they are usually repeats but may differ in a detail not shown here. Identical values can stand only once.
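Further: spheroids exposed to drugs for one week before measurement.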
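Wherever viability, T/C is given: percent viability relative to DMSO vehicle control taken as 100%.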

In the case of `CCc1c2c(nc3ccc(O)cc13)-c1cc3c(c(=O)n1C2)COC(=O)[C@]3(O)CC` + COC1C(OC(N)=O)C(O)C(Oc2ccc3c(O)c(NC(=O)c4ccc(O)c(CC=C(C)C)c4)c(=O)oc3c2C)OC1(C)C, the IC50 (in general, the point on the concentration scale where inhibition reaches its midpoint) under setting [1] is greater than 1000 nM; the IC50 under setting [2] is greater than 1000 nM; the concentration for half-maximal inhibition (IC50) under setting [3] was greater than 1000 nM; the IC50 under setting [4] was greater than 1000 nM; the IC50 under setting [5] is greater than 1000 nM; the IC50 under setting [6] is greater than 1000 nM. Moreover, the viability, T/C (as a rule, the ratio of treated to control) by setting is: (second compound 0.0316 µM, first compound 0.00316 µM) 109%; (second compound 0.0316 µM, first compound 0.01 µM) 77.5%; under setting [7], 69.4%; under setting [8], 65.4%; under setting [9], 70.4%; under setting [10], 48.9%. Moreover, the viability, T/C was 114% (second compound 0.1 µM, first compound 0.00316 µM); 91.8% (second compound 0.1 µM, first compound 0.01 µM); 64.3% under setting [11]; 64.5% under setting [12]; 66.3% under setting [13]; 57.8% under setting [14]. The viability, T/C reads like this: (second compound 0.316 µM, first compound 0.00316 µM) 91.8%; (second compound 0.316 µM, first compound 0.01 µM) 87.1%; under setting [15], 77.2%; under setting [16], 64.8%; under setting [17], 61.5%; under setting [18], 56.2%. In addition, the viability, T/C (second compound 1 µM, first compound 0.00316 µM) is 112%; the viability, T/C (second compound 1 µM, first compound 0.01 µM) was 92.1%; the viability, T/C under setting [19] was 77.9%; the viability, T/C under setting [20] is 62.5%; the viability, T/C under setting [21] was 64%; the viability, T/C under setting [22] was 59.4%. Besides, the viability, T/C was 93.9% (second compound 3.16 µM, first compound 0.00316 µM); 77.5% (second compound 3.16 µM, first compound 0.01 µM); 68.8% under setting [23]; 69.4% under setting [24]; 63% under setting [25]; 56.6% under setting [26]. Also, the viability, T/C (second compound 10 µM, first compound 0.00316 µM) was 99.2%; the viability, T/C (second compound 10 µM, first compound 0.01 µM) is 89.3%; the viability, T/C under setting [27] was 71.7%; the viability, T/C under setting [28] is 60.9%; the viability, T/C under setting [29] was 63.6%; the viability, T/C under setting [30] is 48.8%.
`O=C(c1cc(Cc2n[nH]c(=O)c3ccccc23)ccc1F)N1CCN(C(=O)C2CC2)CC1`: the viability, T/C is, setting by setting: (compound 0.0316 µM) 94.4% and 93.8% and 100%; (compound 0.1 µM) 101% and 83.9% and 107%; (compound 0.316 µM) 98.9% and 81.6% and 109%; (compound 1 µM) 97.1% and 85.2% and 89.6%; (compound 3.16 µM) 98.6% and 94.9% and 100%; (compound 10 µM) 88.7% and 80.5% and 96.8%. Under “curve of compound”, the concentration for half-maximal inhibition (IC50) was greater than 10000 nM.
Regarding `COc1cccc(OCCCN)c1-c1cc(Nc2cnc(C#N)cn2)n[nH]1`, the viability, T/C (compound 0.00316 µM) was 98.2% and 103% (2×); the viability, T/C (compound 0.01 µM) was 92.8% and 112% and 96%; the viability, T/C (compound 0.0316 µM) was 60.5% and 75.7% and 77.2%; the viability, T/C (compound 0.1 µM) was 52.1% and 57.2% and 56.9%; the viability, T/C (compound 0.316 µM) was 37.6% and 41.3% and 50.1%; the viability, T/C (compound 1 µM) was 38.9% and 37.3% and 45.4%. Moreover, the half-inhibitory concentration (IC50) (curve of compound) is 78.9 nM and 135 nM and 268 nM.
As for `Cn1ncnc1[C@H]1c2n[nH]c(=O)c3cc(F)cc(c23)N[C@@H]1c1ccc(F)cc1`, the viability, T/C reads like this: (compound 0.000316 µM) 107% and 92.2% and 97.5%; (compound 0.001 µM) 108% and 87.9% and 99%; (compound 0.00316 µM) 110% and 111% and 116%; (compound 0.01 µM) 124% and 107% and 98.2%; (compound 0.0316 µM) 128% and 92.6% and 95.2%; (compound 0.1 µM) 101% (2×) and 99.2%. Where the note is “curve of compound”, the IC50 is greater than 100 nM.
Take `C=CC(=O)N1CCN(c2nc(=O)n(-c3c(C)ccnc3C(C)C)c3nc(-c4c(O)cccc4F)c(F)cc23)C(C)C1` (configuration not stated): the viability, T/C is, setting by setting: (compound 0.0316 µM) 84.9% and 90.1% and 80.7%; (compound 0.1 µM) 71.5% and 77.5% and 66.9%; (compound 0.316 µM) 85.2% and 74.5% and 70.9%; (compound 1 µM) 72.8% and 66.9% and 60.2%; (compound 3.16 µM) 63.5% and 85.5% and 63%; (compound 10 µM) 66.1% and 77.9% and 62.6%. For the same compound, the IC50 (curve of compound) is greater than 10000 nM.
Take `CNCc1ccc(-c2[nH]c3cc(F)cc4c3c2CCNC4=O)cc1` + COC1C(OC(N)=O)C(O)C(Oc2ccc3c(O)c(NC(=O)c4ccc(O)c(CC=C(C)C)c4)c(=O)oc3c2C)OC1(C)C: the half-maximal inhibitory concentration (IC50) is, setting by setting: under setting [1], greater than 10000 nM; under setting [2], greater than 10000 nM; under setting [3], greater than 10000 nM; under setting [4], greater than 10000 nM; under setting [5], greater than 10000 nM; under setting [6], greater than 10000 nM. For the same compound, the viability, T/C was 99.5% under setting [7]; 98.7% under setting [8]; 102% under setting [9]; 117% under setting [10]; 114% (second compound 0.0316 µM, first compound 3.16 µM); 103% (second compound 0.0316 µM, first compound 10 µM). Moreover, the viability, T/C was 114% under setting [11]; 106% under setting [12]; 102% under setting [13]; 107% under setting [14]; 118% (second compound 0.1 µM, first compound 3.16 µM); 133% (second compound 0.1 µM, first compound 10 µM). Besides, the viability, T/C under setting [15] was 91.6%; the viability, T/C under setting [16] was 94.9%; the viability, T/C under setting [17] was 98.7%; the viability, T/C under setting [18] was 105%; the viability, T/C (second compound 0.316 µM, first compound 3.16 µM) was 97.2%; the viability, T/C (second compound 0.316 µM, first compound 10 µM) is 116%. Besides, the viability, T/C is 91.8% under setting [19]; 105% under setting [20]; 105% under setting [21]; 117% under setting [22]; 117% (second compound 1 µM, first compound 3.16 µM); 115% (second compound 1 µM, first compound 10 µM). The viability, T/C by setting is: under setting [23], 113%; under setting [24], 90.9%; under setting [25], 95.4%; under setting [26], 118%; (second compound 3.16 µM, first compound 3.16 µM) 105%; (second compound 3.16 µM, first compound 10 µM) 111%. Moreover, the viability, T/C by setting is: under setting [27], 113%; under setting [28], 104%; under setting [29], 111%; under setting [30], 106%; (second compound 10 µM, first compound 3.16 µM) 96.3%; (second compound 10 µM, first compound 10 µM) 100%.

The record behind these values is PubChem BioAssay AID1963849 (Molecular Pharmacology Branch, DTP, NCI, 2024).
